# According to the supplement of paper PMC10307832:
# Columns and labels:
# Assay in all cases: relative viability (nuclei count vs DMSO), 5 days (fraction); higher = more cells survive
# HCC-15 = tested on: HCC-15
# Method in brief: (§1)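 Lung cancer cell lines, seeded in 1536-well plates, were treated the following day by pin tool with a single drug or with five library-drug doses (not always all listed) in √10 steps on top of a fixed anchor-drug dose. Cells were fixed and nuclei stained in one step after 5 days, and nuclei were counted. Relative viability is the nuclei count for treated wells divided by that for vehicle wells, reported as medians of duplicate plates.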
# NCI-H1793 = tested on: NCI-H1793
# Method in brief: as §1
# EKVX = tested on: EKVX
# Method in brief: as §1
# SW 900 = tested on: SW 900
# Method in brief: as §1
# H3255 = tested on: H3255
# Method in brief: as §1
# NCI-H522 = tested on: NCI-H522
# Method in brief: as §1
# NCI-H322M = tested on: NCI-H322M
# Method in brief: as §1
# ChaGo-K-1 = tested on: ChaGo-K-1
# Method in brief: as §1
# LC-2-ad = tested on: LC-2-ad
# Method in brief: as §1
# NCI-H1792 = tested on: NCI-H1792
# Method in brief: as §1
# EMC-BAC-2 = tested on: EMC-BAC-2
# Method in brief: as §1
# NCI-H1993 = tested on: NCI-H1993
# Method in brief: as §1
structure (smiles),measurement,setting,value
COCC1(CO)C(=O)C2CCN1CC2 (stereo unspecified) [PRIMA-1MET] + CC(=O)Nc1cccc(-n2c(=O)n(C3CC3)c(=O)c3c(Nc4ccc(I)cc4F)n(C)c(=O)c(C)c32)c1 [Trametinib] (partner 0.02 µM),relative viability,HCC-15; first compound 0.2 µM,0.37
same,relative viability,HCC-15; first compound 0.6325 µM,0.346
same,relative viability,HCC-15; first compound 2 µM,0.37
same,relative viability,HCC-15; first compound 6.325 µM,0.328
same,relative viability,HCC-15; first compound 20 µM,0.31
same,relative viability,NCI-H1793; first compound 0.2 µM,0.365
same,relative viability,NCI-H1793; first compound 0.6325 µM,0.41
same,relative viability,NCI-H1793; first compound 6.325 µM,0.361
same,relative viability,NCI-H1793; first compound 20 µM,0.517
same,relative viability,EKVX; first compound 0.2 µM,0.344
same,relative viability,EKVX; first compound 2 µM,0.283
same,relative viability,EKVX; first compound 6.325 µM,0.233
same,relative viability,EKVX; first compound 20 µM,0.243
same,relative viability,SW 900; first compound 0.2 µM,0.615
same,relative viability,SW 900; first compound 0.6325 µM,0.765
same,relative viability,SW 900; first compound 6.325 µM,0.676
same,relative viability,SW 900; first compound 20 µM,0.131
same,relative viability,H3255; first compound 0.2 µM,0.51
same,relative viability,H3255; first compound 0.6325 µM,0.625
same,relative viability,H3255; first compound 2 µM,0.57
same,relative viability,H3255; first compound 6.325 µM,0.575
same,relative viability,H3255; first compound 20 µM,0.55
same,relative viability,NCI-H522; first compound 0.2 µM,0.655
same,relative viability,NCI-H522; first compound 0.6325 µM,0.673
same,relative viability,NCI-H522; first compound 2 µM,0.528
same,relative viability,NCI-H522; first compound 6.325 µM,0.717
same,relative viability,NCI-H522; first compound 20 µM,0.121
same,relative viability,NCI-H322M; first compound 0.2 µM,0.484
same,relative viability,NCI-H322M; first compound 0.6325 µM,0.467
same,relative viability,NCI-H322M; first compound 6.325 µM,0.468
same,relative viability,NCI-H322M; first compound 20 µM,0.45
same,relative viability,ChaGo-K-1; first compound 0.2 µM,0.996
same,relative viability,ChaGo-K-1; first compound 0.6325 µM,0.735
same,relative viability,ChaGo-K-1; first compound 2 µM,0.849
same,relative viability,ChaGo-K-1; first compound 6.325 µM,0.891
same,relative viability,ChaGo-K-1; first compound 20 µM,0.857
same,relative viability,LC-2-ad; first compound 0.2 µM,0.82
same,relative viability,LC-2-ad; first compound 0.6325 µM,0.914
same,relative viability,LC-2-ad; first compound 2 µM,0.924
same,relative viability,LC-2-ad; first compound 6.325 µM,0.878
same,relative viability,LC-2-ad; first compound 20 µM,0.905
same,relative viability,NCI-H1792; first compound 0.2 µM,0.413
same,relative viability,NCI-H1792; first compound 6.325 µM,0.434
same,relative viability,NCI-H1792; first compound 20 µM,0.54
same,relative viability,EMC-BAC-2; first compound 0.2 µM,0.637
same,relative viability,EMC-BAC-2; first compound 0.6325 µM,0.904
same,relative viability,EMC-BAC-2; first compound 2 µM,0.907
same,relative viability,EMC-BAC-2; first compound 6.325 µM,0.734
same,relative viability,EMC-BAC-2; first compound 20 µM,0.91
same,relative viability,NCI-H1993; first compound 0.2 µM,0.619
same,relative viability,NCI-H1993; first compound 2 µM,0.588
